ChEMBL document CHEMBL5321272 (J Med Chem, 2023)
Active and inactive are the calls of the source. No cut-off for these calls is given here.

Legend:
[1] = target: T1, Serine/threonine-protein kinase Chk1 (Homo sapiens) (UniProt O14757); assay: Inhibition of CHK1 in human MV4-11 cells assessed as downregulation of c-Myc protein expression at 50 to 200 nM measured after 90 mins by western blot analysis; type: cell-based; conditions: dose 50-200 nM
T1 sequence (whole entry): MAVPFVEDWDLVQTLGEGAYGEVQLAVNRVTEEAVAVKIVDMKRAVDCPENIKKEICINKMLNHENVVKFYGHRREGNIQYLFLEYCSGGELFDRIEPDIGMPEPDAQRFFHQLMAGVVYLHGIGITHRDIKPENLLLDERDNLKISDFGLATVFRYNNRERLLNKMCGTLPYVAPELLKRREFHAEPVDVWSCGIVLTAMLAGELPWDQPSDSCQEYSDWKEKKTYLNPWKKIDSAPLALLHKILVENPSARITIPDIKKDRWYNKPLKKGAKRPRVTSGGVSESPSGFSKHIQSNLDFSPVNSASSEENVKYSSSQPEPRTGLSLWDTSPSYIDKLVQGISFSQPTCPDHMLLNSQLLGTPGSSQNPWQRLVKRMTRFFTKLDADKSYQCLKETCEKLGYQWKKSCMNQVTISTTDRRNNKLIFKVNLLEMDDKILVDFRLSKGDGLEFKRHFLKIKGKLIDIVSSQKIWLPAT

[2] = target: T1, Serine/threonine-protein kinase Chk1 (Homo sapiens); assay: Inhibition of CHK1 in human MV4-11 cells assessed as upregulation of p53 protein expression measured after 90 mins by western blot analysis; type: cell-based; conditions: dose 50-200 nM
[3] = Acute toxicity in ICR mouse assessed as animal's death at 300 mg/kg, ig and measured for 7 days; type: organism-based; conditions: in vivo, po, 168 h, time 7 day
[4] = target: Receptor-type tyrosine-protein kinase FLT3 (Homo sapiens) (UniProt P36888); assay: Inhibition of FLT3 in human MV4-11 cells assessed as inhibition of STAT5 phosphorylation at Tyr694 residue measured after 90 mins by western blot analysis; type: cell-based; conditions: dose 20-100 nM
Receptor-type tyrosine-protein kinase FLT3 (Homo sapiens), sequence (P36888 whole entry): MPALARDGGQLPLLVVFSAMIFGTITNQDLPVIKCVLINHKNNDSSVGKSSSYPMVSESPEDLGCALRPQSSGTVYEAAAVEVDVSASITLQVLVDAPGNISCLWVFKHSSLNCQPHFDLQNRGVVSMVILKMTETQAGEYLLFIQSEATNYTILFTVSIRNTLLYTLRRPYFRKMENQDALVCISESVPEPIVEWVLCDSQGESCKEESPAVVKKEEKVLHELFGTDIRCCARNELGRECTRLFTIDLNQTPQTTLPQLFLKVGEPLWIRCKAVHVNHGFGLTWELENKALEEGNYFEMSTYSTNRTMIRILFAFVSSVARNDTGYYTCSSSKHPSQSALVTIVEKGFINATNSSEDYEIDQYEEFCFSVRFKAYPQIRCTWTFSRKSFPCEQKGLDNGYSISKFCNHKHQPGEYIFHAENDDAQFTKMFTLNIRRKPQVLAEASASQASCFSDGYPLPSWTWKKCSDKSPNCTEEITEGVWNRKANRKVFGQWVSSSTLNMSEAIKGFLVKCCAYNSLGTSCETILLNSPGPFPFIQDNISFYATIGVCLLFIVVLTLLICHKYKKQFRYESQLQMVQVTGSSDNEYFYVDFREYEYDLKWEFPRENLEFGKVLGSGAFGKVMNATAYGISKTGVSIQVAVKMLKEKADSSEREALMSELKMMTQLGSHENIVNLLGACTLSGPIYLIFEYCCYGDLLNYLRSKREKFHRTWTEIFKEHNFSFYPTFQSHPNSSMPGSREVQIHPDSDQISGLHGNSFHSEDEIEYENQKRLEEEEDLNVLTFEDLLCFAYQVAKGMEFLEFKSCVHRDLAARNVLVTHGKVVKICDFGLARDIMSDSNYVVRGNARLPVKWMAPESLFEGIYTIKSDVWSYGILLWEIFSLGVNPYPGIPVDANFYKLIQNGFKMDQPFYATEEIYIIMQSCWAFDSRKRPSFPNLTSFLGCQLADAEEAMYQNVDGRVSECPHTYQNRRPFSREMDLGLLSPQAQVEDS

[5] = system: MV4-11; assay: Antitumor activity against human MV4-11 cells xenografted in nu/nu mouse assessed as inhibition of tumor growth administered orally qd for 22 days; type: functional; conditions: dose 1-3 mg/kg, route po, time 22.0 day
[6] = target: T2, Serine/threonine-protein kinase Chk1 (Homo sapiens, UniProt O14757)
T2 sequence (O14757 whole entry): T1 sequence (whole entry)
Description: Inhibition of CHK1 (unknown origin) using peptide substrate S1 and ATP as substrate incubated for 1 hr by HTRF assay

[7] = target: AMPK alpha2/beta1/gamma1 (Homo sapiens, UniProt P54619+P54646+Q9Y478); assay: Inhibition of AMPK alpha2beta1gamma1 (unknown origin) by HTRF assay; type: protein-complex assay
AMPK alpha2/beta1/gamma1, sequence (P54646 whole entry): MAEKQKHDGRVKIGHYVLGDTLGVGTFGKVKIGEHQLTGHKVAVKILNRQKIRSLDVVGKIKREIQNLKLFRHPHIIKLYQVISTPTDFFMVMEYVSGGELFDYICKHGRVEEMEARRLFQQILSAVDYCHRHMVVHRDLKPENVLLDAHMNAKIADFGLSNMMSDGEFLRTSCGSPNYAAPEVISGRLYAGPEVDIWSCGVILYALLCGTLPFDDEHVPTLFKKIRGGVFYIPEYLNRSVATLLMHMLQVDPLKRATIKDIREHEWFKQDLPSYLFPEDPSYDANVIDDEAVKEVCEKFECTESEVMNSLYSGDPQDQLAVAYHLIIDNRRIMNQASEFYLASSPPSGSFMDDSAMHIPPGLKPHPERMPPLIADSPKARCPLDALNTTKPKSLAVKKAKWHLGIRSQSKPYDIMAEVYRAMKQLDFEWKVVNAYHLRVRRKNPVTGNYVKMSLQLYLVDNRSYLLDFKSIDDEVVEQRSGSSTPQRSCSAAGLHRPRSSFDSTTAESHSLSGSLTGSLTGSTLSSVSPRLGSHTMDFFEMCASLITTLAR
AMPK alpha2/beta1/gamma1, sequence (P54619 whole entry): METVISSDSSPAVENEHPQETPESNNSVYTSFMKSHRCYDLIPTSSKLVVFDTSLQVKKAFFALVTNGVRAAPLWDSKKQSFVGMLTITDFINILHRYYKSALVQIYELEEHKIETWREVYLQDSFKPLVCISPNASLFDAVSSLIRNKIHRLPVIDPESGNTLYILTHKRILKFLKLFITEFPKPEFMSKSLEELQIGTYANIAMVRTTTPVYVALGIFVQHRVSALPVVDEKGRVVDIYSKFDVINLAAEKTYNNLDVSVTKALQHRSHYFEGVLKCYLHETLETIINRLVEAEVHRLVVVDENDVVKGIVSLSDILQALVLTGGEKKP
AMPK alpha2/beta1/gamma1, sequence (Q9Y478 whole entry): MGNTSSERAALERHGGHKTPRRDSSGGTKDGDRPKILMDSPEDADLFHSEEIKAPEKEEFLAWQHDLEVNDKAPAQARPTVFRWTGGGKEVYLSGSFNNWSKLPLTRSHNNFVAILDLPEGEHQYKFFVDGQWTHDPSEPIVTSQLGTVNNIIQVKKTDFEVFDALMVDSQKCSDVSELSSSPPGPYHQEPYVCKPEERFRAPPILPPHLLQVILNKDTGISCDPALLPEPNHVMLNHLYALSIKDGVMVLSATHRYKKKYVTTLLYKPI

[8] = Selectivity ratio of IC50 for BLK (unknown origin) to IC50 for FLT3-ITD mutant (unknown origin)
[9] = Toxicity against NSG mouse xenografted with human MOLM-13 cells assessed as body weight loss at 15 to 30 mg/kg, po qd for 26 days; type: organism-based; conditions: in vivo, 624 h, dose 15-30 mg/kg, time 26 day
[10] = target: Receptor-type tyrosine-protein kinase FLT3 (Homo sapiens, UniProt P36888, ITD); assay: Inhibition of FLT3 ITD mutant (unknown origin) by HTRF assay
Receptor-type tyrosine-protein kinase FLT3, sequence (P36888 whole entry, looked up, stated change not applied): as the sequence (P36888 whole entry) above

[11] = Selectivity ratio of IC50 for inhibition of c-KIT (unknown origin) to IC50 for inhibition of FLT3 D835Y mutant (unknown origin)
[12] = Selectivity ratio of IC50 for IRAK4 (unknown origin) to IC50 for FLT3-ITD mutant (unknown origin)
[13] = system: MV4-11; assay: Antitumor activity against human MV4-11 cells xenografted in nu/nu mouse assessed as inhibition of tumor growth rate at 3 mg/kg, po qd for 22 days; type: functional; conditions: MV4-11, 528 h, time 22 day
[14] = target: T3, Voltage-gated inwardly rectifying potassium channel KCNH2 (Homo sapiens, UniProt Q12809); assay: Inhibition of hERG expressed in HEK293 cells assessed as inhibition of channel current amplitude by whole cell patch clamp analysis; type: toxicity, cell-based
T3 sequence (Q12809 whole entry): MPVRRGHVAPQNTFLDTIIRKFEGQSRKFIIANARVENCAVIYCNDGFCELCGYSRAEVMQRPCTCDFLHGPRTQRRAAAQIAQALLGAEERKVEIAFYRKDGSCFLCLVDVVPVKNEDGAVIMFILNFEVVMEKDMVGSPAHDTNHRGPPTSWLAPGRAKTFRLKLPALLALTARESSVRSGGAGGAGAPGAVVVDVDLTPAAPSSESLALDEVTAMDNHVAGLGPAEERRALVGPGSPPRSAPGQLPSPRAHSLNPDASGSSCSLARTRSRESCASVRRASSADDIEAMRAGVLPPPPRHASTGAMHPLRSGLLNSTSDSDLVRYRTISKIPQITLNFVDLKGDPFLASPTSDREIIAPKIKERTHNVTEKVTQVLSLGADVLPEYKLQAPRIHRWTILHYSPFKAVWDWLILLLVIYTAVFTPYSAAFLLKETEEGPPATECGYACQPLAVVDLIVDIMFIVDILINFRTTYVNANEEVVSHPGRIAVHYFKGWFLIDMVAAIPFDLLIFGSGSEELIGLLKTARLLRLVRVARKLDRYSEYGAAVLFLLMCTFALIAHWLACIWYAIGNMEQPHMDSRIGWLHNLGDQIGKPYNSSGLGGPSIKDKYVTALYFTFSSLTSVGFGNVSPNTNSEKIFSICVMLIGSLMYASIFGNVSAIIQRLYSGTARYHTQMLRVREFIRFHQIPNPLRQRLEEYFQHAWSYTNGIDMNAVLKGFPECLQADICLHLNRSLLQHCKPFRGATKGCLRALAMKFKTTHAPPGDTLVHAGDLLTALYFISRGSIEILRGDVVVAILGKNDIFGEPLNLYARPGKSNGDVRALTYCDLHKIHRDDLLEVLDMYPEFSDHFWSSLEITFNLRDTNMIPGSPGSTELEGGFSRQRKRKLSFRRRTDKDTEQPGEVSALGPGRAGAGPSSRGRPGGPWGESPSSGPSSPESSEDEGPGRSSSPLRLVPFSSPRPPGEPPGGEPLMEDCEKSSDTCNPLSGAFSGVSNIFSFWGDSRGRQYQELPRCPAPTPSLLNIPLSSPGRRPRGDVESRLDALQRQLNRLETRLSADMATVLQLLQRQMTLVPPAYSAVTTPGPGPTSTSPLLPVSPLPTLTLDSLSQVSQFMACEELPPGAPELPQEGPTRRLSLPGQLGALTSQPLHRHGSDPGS

[15] = Selectivity ratio of IC50 for AMPK alpha2beta1gamma1 (unknown origin) to IC50 for FLT3-ITD mutant (unknown origin)
[16] = target: Receptor-type tyrosine-protein kinase FLT3 (Homo sapiens) (UniProt P36888); assay: Inhibition of FLT3 in human MV4-11 cells assessed as inhibition of ERK phosphorylation at Tyr204 residue at 20 nM measured after 90 mins by western blot analysis; type: cell-based
[17] = target: Receptor-type tyrosine-protein kinase FLT3 (Homo sapiens) (UniProt P36888); assay: Inhibition of FLT3 in human MV4-11 cells assessed as inhibition of ERK phosphorylation at Tyr204 residue measured after 90 mins by western blot analysis; type: cell-based; conditions: dose 20-100 nM
[18] = Selectivity ratio of IC50 for ALK (unknown origin) to IC50 for FLT3-ITD mutant (unknown origin)
[19] = Selectivity ratio of IC50 for PIM1 (unknown origin) to IC50 for FLT3-ITD mutant (unknown origin)
[20] = Selectivity ratio of IC50 for EGFR (unknown origin) to IC50 for FLT3-ITD mutant (unknown origin)
[21] = Selectivity ratio of IC50 for HCK (unknown origin) to IC50 for FLT3-ITD mutant (unknown origin)
[22] = target: T3, Voltage-gated inwardly rectifying potassium channel KCNH2; assay: Inhibition of hERG expressed in HEK293 cells assessed as inhibition of channel current amplitude at 100 uM by whole cell patch clamp analysis; type: toxicity, cell-based; conditions: hek293, 100 µM
[23] = Acute toxicity in ICR mouse assessed as morphological changes in liver at 300 mg/kg, ig and measured for 7 days by Hematoxylin-Eosin staining based analysis; type: organism-based; conditions: in vivo, po, 168 h, time 7 day
[24] = system: BaF3; assay: Antiproliferative activity against mouse BaF3 cells harboring FLT3 D835F mutant assessed as reduction in cell viability incubated for 72 hrs by CellTiter 96 Aqueous One Solution Cell Proliferation Assay; type: functional, cell-based
[25] = target: T1, Serine/threonine-protein kinase Chk1 (Homo sapiens); assay: Inhibition of CHK1 in human MV4-11 cells assessed as increase in CHK1 phosphorylation at Ser345 residue at 50 to 200 nM measured after 90 mins by western blot analysis; type: cell-based; conditions: dose 50-200 nM
[26] = target: Mast/stem cell growth factor receptor Kit (Homo sapiens, UniProt P10721); assay: Inhibition of c-KIT (unknown origin) using peptide substrate TK-S and ATP as substrate incubated for 1 hr by HTRF assay; type: toxicity
Mast/stem cell growth factor receptor Kit, sequence (P10721 whole entry): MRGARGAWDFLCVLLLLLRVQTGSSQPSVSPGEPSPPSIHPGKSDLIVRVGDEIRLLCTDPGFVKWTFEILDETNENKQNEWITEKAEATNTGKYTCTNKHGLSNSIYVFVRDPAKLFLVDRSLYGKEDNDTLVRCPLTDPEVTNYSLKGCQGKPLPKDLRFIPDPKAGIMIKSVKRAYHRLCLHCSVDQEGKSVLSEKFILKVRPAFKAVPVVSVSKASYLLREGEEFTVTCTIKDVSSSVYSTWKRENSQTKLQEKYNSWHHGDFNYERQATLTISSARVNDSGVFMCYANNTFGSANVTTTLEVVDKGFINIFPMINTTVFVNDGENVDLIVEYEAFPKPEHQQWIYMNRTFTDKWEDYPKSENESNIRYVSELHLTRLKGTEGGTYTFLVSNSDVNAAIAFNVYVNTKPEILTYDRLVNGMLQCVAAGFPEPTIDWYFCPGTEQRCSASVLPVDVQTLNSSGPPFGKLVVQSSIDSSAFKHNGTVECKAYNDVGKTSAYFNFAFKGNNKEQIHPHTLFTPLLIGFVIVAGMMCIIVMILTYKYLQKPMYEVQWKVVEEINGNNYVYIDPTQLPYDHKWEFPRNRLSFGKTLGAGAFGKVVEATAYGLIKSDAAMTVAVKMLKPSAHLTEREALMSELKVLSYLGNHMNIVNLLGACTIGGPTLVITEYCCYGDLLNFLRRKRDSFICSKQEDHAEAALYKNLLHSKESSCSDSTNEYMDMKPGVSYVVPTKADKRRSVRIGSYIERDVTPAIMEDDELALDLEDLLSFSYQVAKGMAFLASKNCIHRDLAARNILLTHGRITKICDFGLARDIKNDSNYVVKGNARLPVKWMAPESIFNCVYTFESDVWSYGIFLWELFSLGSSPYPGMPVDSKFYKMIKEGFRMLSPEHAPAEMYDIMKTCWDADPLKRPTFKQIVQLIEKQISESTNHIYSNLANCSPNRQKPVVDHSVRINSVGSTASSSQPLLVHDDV

[27] = target: T3, Voltage-gated inwardly rectifying potassium channel KCNH2; assay: Inhibition of hERG expressed in HEK293 cells assessed as inhibition of tail current at 1 to 10 uM by whole cell patch clamp analysis; type: toxicity, cell-based; conditions: hek293, 10 µM, dose 1-10 µM
[28] = Selectivity ratio of IC50 for EPHA1 (unknown origin) to IC50 for FLT3-ITD mutant (unknown origin)
[29] = Selectivity ratio of IC50 for CK1alpha (unknown origin) to IC50 for FLT3-ITD mutant (unknown origin)
[30] = target: Receptor-type tyrosine-protein kinase FLT3 (Homo sapiens) (UniProt P36888); assay: Inhibition of FLT3 in human MV4-11 cells assessed as inhibition of AKT phosphorylation at Ser473 residue measured after 90 mins by western blot analysis; type: cell-based; conditions: dose 20-100 nM
[31] = Selectivity ratio of IC50 for MET (unknown origin) to IC50 for FLT3-ITD mutant (unknown origin)
[32] = target: Receptor-type tyrosine-protein kinase FLT3 (Homo sapiens) (UniProt P36888); assay: Inhibition of FLT3 in human MV4-11 cells assessed as inhibition of FLT3 phosphorylation at 20 nM measured after 90 mins by western blot analysis; type: cell-based

Structure (SMILES): CC(C)(O)CC(=O)N1CCc2cc(Nc3ncc(C(F)(F)F)c(N[C@H]4CC[C@@H](N)CC4)n3)ccc2C1
- inhibition [1]: Active
- inhibition [2]: Dose-Dependent Effect
- Activity [3]: Non-Toxic
- inhibition [4]: Dose-Dependent Effect
- Activity [5]: Dose-Dependent Effect
- IC50 [6]: 9.8 nM
- IC50 [7]: 18.4 nM
- Ratio IC50 [8]: > 100
- Activity [9]: Non-Toxic
- IC50 [10]: < 10 nM
- Ratio IC50 [11]: 1740
- Ratio IC50 [12]: > 100
- inhibition in vivo at 3 mg/kg [13]: 52.8%
- IC50 [14]: 58400 nM
- Ratio IC50 [15]: > 100
- inhibition [16]: 100%
- inhibition [17]: Dose-Dependent Effect
- Ratio IC50 [18]: > 100
- Ratio IC50 [19]: > 100
- Ratio IC50 [20]: > 100
- Ratio IC50 [21]: > 100
- inhibition (INH) [22]: Active
- Activity [23]: Non-Toxic
- Activity [24]: Active
- inhibition [25]: Active
- IC50 [26]: 1870 nM
- inhibition (INH) [27]: Not Active
- Ratio IC50 [28]: > 100
- Ratio IC50 [29]: > 100
- inhibition [30]: Dose-Dependent Effect
- Ratio IC50 [31]: > 100
- inhibition [32]: 100%
